Key:
Type in all cases: cell-based
hERG potassium channel [1] = molecular target: hERG potassium channel (Homo sapiens, UniProt Q12809, Y652A); assay: whole-cell patch clamp, CHO cells transiently expressing Y652A hERG
hERG potassium channel [2] = molecular target: hERG potassium channel (Homo sapiens, UniProt Q12809, F656A); assay: whole-cell patch clamp, CHO cells transiently expressing F656A hERG, high [K+]
hERG potassium channel [3] = molecular target: hERG potassium channel (Homo sapiens, UniProt Q12809); assay: whole-cell patch clamp, HEK cells stably expressing hERG, tail current block
Chain of hERG potassium channel (Homo sapiens, UniProt Q12809) (Q12809 whole entry): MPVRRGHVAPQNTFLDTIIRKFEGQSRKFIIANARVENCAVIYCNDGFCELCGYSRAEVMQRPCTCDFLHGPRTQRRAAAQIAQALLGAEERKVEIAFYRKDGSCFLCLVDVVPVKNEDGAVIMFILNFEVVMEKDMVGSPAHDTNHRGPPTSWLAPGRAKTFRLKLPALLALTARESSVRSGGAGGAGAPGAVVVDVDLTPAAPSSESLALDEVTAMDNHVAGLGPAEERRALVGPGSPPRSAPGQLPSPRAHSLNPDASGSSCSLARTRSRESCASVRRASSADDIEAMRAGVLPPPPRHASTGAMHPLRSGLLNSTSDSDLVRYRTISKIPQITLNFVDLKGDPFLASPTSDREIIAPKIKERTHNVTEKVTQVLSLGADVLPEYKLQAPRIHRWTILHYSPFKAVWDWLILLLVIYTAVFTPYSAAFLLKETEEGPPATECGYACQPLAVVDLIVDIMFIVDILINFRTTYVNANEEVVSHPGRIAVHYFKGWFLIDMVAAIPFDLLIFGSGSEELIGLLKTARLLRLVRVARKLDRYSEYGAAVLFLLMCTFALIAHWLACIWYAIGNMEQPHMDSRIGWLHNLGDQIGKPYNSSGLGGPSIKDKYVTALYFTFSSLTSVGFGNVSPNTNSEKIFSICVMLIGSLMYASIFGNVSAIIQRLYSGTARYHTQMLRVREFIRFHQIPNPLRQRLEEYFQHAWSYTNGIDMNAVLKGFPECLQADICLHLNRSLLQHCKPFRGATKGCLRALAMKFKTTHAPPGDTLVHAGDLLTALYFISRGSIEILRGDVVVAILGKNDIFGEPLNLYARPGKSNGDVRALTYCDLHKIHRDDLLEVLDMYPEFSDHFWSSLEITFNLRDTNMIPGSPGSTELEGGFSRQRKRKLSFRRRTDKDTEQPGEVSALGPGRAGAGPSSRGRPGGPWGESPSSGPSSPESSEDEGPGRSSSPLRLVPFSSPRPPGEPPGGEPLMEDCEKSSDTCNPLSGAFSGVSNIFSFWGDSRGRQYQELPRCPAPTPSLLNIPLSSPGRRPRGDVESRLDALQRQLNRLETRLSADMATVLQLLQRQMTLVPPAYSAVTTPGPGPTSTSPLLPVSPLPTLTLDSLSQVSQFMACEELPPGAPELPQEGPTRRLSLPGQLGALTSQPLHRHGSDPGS

Chain of hERG potassium channel (Homo sapiens, UniProt Q12809, Y652A) (Q12809 whole entry Y652A): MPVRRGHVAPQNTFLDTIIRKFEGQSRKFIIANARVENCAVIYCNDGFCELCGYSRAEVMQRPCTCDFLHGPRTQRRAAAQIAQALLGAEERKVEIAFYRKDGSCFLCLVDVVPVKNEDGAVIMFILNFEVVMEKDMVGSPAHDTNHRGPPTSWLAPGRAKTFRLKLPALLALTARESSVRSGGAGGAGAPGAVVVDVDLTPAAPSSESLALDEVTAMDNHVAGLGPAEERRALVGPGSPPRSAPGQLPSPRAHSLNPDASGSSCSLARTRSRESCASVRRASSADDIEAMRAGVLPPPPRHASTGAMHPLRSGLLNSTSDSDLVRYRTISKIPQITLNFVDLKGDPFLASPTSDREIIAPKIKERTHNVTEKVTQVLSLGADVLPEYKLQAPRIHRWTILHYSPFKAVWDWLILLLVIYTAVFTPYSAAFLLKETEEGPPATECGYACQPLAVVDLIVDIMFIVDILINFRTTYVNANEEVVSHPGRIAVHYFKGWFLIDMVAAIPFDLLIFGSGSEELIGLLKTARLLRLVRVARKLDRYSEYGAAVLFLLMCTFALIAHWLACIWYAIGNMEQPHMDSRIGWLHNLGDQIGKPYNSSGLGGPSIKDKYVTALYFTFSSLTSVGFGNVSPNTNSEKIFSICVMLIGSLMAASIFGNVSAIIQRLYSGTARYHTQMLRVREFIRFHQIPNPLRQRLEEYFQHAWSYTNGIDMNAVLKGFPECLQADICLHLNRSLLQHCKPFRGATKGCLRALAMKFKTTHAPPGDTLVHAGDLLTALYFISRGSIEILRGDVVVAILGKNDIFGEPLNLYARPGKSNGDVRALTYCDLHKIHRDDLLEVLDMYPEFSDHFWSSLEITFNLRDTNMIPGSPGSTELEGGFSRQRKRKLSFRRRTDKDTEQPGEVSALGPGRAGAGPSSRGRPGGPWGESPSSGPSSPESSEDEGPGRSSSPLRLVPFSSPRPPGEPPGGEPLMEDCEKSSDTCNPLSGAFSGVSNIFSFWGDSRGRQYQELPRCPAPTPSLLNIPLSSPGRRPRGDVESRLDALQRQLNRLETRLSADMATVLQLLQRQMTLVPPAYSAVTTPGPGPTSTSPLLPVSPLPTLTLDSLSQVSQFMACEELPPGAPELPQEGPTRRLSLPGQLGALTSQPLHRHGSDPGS
Chain of hERG potassium channel (Homo sapiens, UniProt Q12809, F656A) (Q12809 whole entry F656A): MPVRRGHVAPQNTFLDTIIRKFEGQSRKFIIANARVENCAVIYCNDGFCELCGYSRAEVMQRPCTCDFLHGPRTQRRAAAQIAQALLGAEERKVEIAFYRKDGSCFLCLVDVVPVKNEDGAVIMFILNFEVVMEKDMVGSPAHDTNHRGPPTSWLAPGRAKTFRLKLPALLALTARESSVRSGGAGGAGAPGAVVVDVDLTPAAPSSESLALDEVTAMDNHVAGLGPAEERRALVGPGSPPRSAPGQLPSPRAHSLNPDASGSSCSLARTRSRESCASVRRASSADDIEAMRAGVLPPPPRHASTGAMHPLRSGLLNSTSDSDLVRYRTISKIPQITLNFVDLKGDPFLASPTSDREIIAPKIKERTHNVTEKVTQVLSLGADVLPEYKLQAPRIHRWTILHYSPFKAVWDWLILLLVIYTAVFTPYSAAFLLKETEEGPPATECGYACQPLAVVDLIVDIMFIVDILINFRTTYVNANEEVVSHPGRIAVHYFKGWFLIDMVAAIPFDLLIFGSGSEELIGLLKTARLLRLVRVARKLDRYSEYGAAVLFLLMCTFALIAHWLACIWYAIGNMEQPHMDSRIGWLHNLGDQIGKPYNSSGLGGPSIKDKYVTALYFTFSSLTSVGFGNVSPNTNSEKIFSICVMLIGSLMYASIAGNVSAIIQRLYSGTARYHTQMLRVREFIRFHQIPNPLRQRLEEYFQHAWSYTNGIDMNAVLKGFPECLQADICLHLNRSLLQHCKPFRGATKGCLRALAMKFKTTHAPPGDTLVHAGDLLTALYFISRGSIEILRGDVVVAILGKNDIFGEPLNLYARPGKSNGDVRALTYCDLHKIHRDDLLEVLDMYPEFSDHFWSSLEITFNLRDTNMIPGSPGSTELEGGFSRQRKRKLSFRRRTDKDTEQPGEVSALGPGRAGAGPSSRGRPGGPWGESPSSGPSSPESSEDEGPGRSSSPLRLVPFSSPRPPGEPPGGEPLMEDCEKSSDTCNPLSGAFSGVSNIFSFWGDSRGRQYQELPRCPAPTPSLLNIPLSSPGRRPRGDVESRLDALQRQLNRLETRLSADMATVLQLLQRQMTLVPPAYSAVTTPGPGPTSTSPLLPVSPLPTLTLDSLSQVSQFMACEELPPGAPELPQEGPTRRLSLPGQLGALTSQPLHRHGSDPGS

SMILES: Cc1cccc(C)c1OCC(C)N (stereo not drawn) [mexiletine]
- IC50 (hERG potassium channel [1]): 41.6 ± 6.6 µM
- IC50 (hERG potassium channel [2]): 111 ± 1.8 µM
- IC50 (hERG potassium channel [3]): 3.7 ± 0.7 µM

From paper PMC4618635 (Pharmacology Research & Perspectives, 2015)
